Measurements taken from patent US4820695A, “C-20-dihydro-deoxy-(cyclic amino)-derivatives of macrolide antibiotics” (priority 1987, dated 1989).
Values after ≈ are worked out from the molar mass of the structure shown. Read-outs that look alike come from different tables or passages of the source.

Assays:
Staphyloccus aureus X1.1 = experiment: MIC, standard agar-dilution assay (Table IX); format: cell-based, Staphylococcus aureus; settings: Staphylococcus aureus, read-out: MIC
[1] = test system: Staphylococcus aureus V41; experiment: MIC, standard agar-dilution assay (Table IX); format: cell-based; settings: Staphylococcus aureus V41, Penicillin-resistant strain, read-out: MIC
[2] = test system: Staphylococcus aureus X400; experiment: MIC, standard agar-dilution assay (Table IX); format: cell-based; settings: Staphylococcus aureus X400, Methicillin-resistant strain, read-out: MIC
[3] = test system: Staphylococcus aureus S13E; experiment: MIC, standard agar-dilution assay (Table IX); format: cell-based; settings: Staphylococcus aureus, S13E
[4] = test system: Staphylococcus epidermidis EPI1; experiment: MIC, standard agar-dilution assay (Table IX); format: cell-based; settings: Staphylococcus epidermidis EPI1; agar-dilution; read-out: MIC
[5] = test system: Staphylococcus epidermidis 222; experiment: MIC, standard agar-dilution assay (Table IX); format: cell-based; settings: read-out: MIC
[6] = test system: Streptococcus pyogenes C203; experiment: MIC, standard agar-dilution assay (Table IX); format: cell-based; settings: read-out: MIC
[7] = test system: Streptococcus pneumoniae Park I; experiment: MIC, standard agar-dilution assay (Table IX); format: cell-based; settings: Streptococcus pneumoniae Park I; agar-dilution; read-out: MIC
[8] = test system: Streptococcus Group D X66; experiment: MIC, standard agar-dilution assay (Table IX); format: cell-based; settings: read-out: MIC
[9] = test system: Streptococcus Group D 2041; experiment: MIC, standard agar-dilution assay (Table IX); format: cell-based; settings: GROUPD2041, read-out: MIC
[10] = test system: Haemophilus influenzae C.L.; experiment: MIC, standard agar-dilution assay (Table IX); format: cell-based; settings: Ampicillin-sensitive strain, read-out: MIC
[11] = test system: Haemophilus influenzae 76; experiment: MIC, standard agar-dilution assay (Table IX); format: cell-based; settings: Haemophilus influenzae 76, Ampicillin-resistant strain, read-out: MIC
Escherichia coli N10 = experiment: MIC, standard agar-dilution assay (Table IX); format: cell-based; settings: read-out: MIC
Escherichia coli EC14 = experiment: MIC, standard agar-dilution assay (Table IX); format: cell-based; settings: read-out: MIC
Escherichia coli TEM = experiment: MIC, standard agar-dilution assay (Table IX); format: cell-based; settings: read-out: MIC
Klebsiella X26 = experiment: MIC, standard agar-dilution assay (Table IX); format: cell-based; settings: read-out: MIC
[12] = test system: Mycoplasma gallisepticum 29C; experiment: MIC, broth-dilution microtiter test (Table X); format: cell-based; settings: Mycoplasmoides gallisepticum, read-out: MIC
Description: (§1) The MIC's in Table X were obtained using conventional broth-dilution microtiter tests.

[13] = test system: Mycoplasma hyopneumoniae S5972; experiment: MIC, broth-dilution microtiter test (Table X); format: cell-based; settings: Mesomycoplasma hyopneumoniae, read-out: MIC
Description: as §1

Mycoplasma synoviae 40A = experiment: MIC, broth-dilution microtiter test (Table X); format: cell-based; settings: Mycoplasmopsis synoviae, read-out: MIC
Description: as §1

[14] = test system: Pasteurella hemolytica 22C; experiment: MIC, broth-dilution microtiter test (Table X); format: cell-based; settings: read-out: MIC
Description: as §1

[15] = test system: Pasteurella multocida 17E; experiment: MIC, broth-dilution microtiter test (Table X); format: cell-based; settings: Bovine isolate, read-out: MIC
Description: as §1

[16] = test system: Pasteurella multocida 60A; experiment: MIC, broth-dilution microtiter test (Table X); format: cell-based; settings: Avian isolate, read-out: MIC
Description: as §1

Staphylococcus aureus = experiment: MIC, broth-dilution microtiter test (Table X); format: cell-based; settings: read-out: MIC
Description: as §1

Streptococcus sp. 19F = experiment: MIC, broth-dilution microtiter test (Table X); format: cell-based; settings: read-out: MIC
Description: as §1

[17] = test system: Streptococcus pyogenes C203; experiment: ED50 in mice experimentally infected with S. pyogenes C203 (Table XI); format: in vivo; settings: Streptococcus pyogenes, doses given 1 and 4 hours postinfection, read-out: ED50
Description: The C-20 modified derivatives of this invention have shown in vivo antimicrobial activity against experimentally-induced infections in laboratory animals. When two doses of test compound were administered to mice experimentally infected with S. pyogenes C203, the activity observed was measured as an ED50 value [effective dose in mg/kg to protect 50% of the test animals: see Warren Wick, et al., J. Bacteriol. 81, 233-235 (1961)].
^a mg/kg × 2; doses given 1 and 4 hours postinfection

Pasteurella multocida [18] = experiment: Pasteurella infection in one-day-old chicks, subcutaneous administration (Table XII); format: in vivo; settings: Administered subcutaneously, 30 mg/kg × 2, 1 and 4 hours post-challenge
Description: (§2) Many of the C-20 modified derivatives of this invention have also shown in vivo antibacterial activity against infections induced by gram-negative bacteria. Tables XII and XIII summarize the results of tests in which illustrative compounds were evaluated against a Pasteurella infection in one-day-old chicks. The compounds were administered parenterally or orally after challenge of the chicks with Pasteurella multocida (0.1 ml of a 10^-4 dilution of a twenty-hour tryptose broth culture of an avian P. multocida given subcutaneously). In these tests, unless indicated otherwise, all non-medicated infected chicks died within 24 hours of Pasteurella challenge. In the tests summarized in Table XII, the compounds were administered by subcutaneous injection at a dosage of 30 mg/kg, 1 and 4 hours post-challenge of the chicks with P. multocida. In the tests summarized in Table XIII the compounds were administered in medicated drinking water (at a level of 2 g/gal) available from 4 to 20 hours prior to challenge of the chicks with P. multocida and during the 3 -day test period.
^a Administered subcutaneously; 30 mg/kg × 2

Pasteurella multocida [19] = experiment: Pasteurella infection in one-day-old chicks, medicated drinking water (Table XIII); format: in vivo; settings: Administered in the available drinking water at 2 g/gal
Description: as §2
^a Administered in the available drinking water at a concentration of […]

[20] = Titratable groups in 66% aqueous DMF (Tables XIV-XVI); format: physicochemical
Description: ^c Run in 66% aqueous DMF
^d Run in 66% aqueous DMF

Mycoplasma hyorhinis 29E = experiment: MIC, broth-dilution microtiter test (Table X); format: cell-based; settings: read-out: MIC
Description: as §1

Row | SMILES | MIC (Staphyloccus aureus X1.1) [µg/mL] | MIC [1] [µg/mL] | MIC [2] [µg/mL] | MIC [3] [µg/mL] | MIC [4] [µg/mL] | MIC [5] [µg/mL] | MIC [6] [µg/mL] | MIC [7] [µg/mL] | MIC [8] [µg/mL] | MIC [9] [µg/mL] | MIC [10] [µg/mL] | MIC [11] [µg/mL] | MIC (Escherichia coli N10) [µg/mL] | MIC (Escherichia coli EC14) [µg/mL] | MIC (Escherichia coli TEM) [µg/mL] | MIC (Klebsiella X26) [µg/mL] | MIC [12] [µg/mL] | MIC [13] [µg/mL] | Number of Deaths/Number Treated (Pasteurella multocida [18]) | Number of Deaths/Number Treated (Pasteurella multocida [19]) | other results
1 | CCC1OC(=O)CC(O)C(C)C(OC2OC(C)C(O)C(N(C)C)C2O)C(CCN2CC3(C)CC2CC(C)(C)C3)CC(C)C(=O)C=CC(C)=CC1COC1OC(C)C(O)C(OC)C1OC (centres unmarked) [Compound D21, 20-DH-DO-20-[1,3,3-trimethyl-6-azabicyclo[3.2.1]octan-6-yl]desmycosin] | 1 (≈ 1.1 µM) | 1 (≈ 1.1 µM) | 1 (≈ 1.1 µM) | 1 (≈ 1.1 µM) | 1 (≈ 1.1 µM) | 0.5 (≈ 0.55 µM) | 0.5 (≈ 0.55 µM) | 0.5 (≈ 0.55 µM) | 4 (≈ 4.4 µM) | 8 (≈ 8.8 µM) | 32 (≈ 35.2 µM) | 16 (≈ 17.6 µM) | 64 (≈ 70.4 µM) | 64 (≈ 70.4 µM) | 32 (≈ 35.2 µM) | 64 (≈ 70.4 µM) | 1.56 (≈ 1.72 µM) | 0.195 (≈ 0.214 µM) | 7/10 | 3/10 | MIC (Mycoplasma synoviae 40A): 0.39 µg/mL (≈ 0.429 µM); MIC [14]: 3.12 µg/mL (≈ 3.43 µM); MIC [15]: 3.12 µg/mL (≈ 3.43 µM); MIC [16]: 3.12 µg/mL (≈ 3.43 µM); MIC (Staphylococcus aureus): 0.78 µg/mL (≈ 0.858 µM); MIC (Streptococcus sp. 19F): 1.56 µg/mL (≈ 1.72 µM); ED50 ([17]; C203, Oral): 10 mg/kg; ED50 ([17]; C203, sc, Subcutaneous): 1 mg/kg; pKa ([20]; Titratable groups): 9.7; pKa ([20]; Titratable groups (first value)): 8
2 | CCC1OC(=O)CC(O)C(C)C(OC2OC(C)C(O)C(N(C)C)C2O)C(CCN2CCC(Cc3ccccc3)CC2)CC(C)C(=O)C=CC(C)=CC1COC1OC(C)C(O)C(OC)C1OC (centres unmarked) [Compound D27, 20-DH-DO-20-(4-benzyl-piperidin-1-yl)desmycosin] | 1 (≈ 1.07 µM) | 1 (≈ 1.07 µM) | 1 (≈ 1.07 µM) | 1 (≈ 1.07 µM) | 1 (≈ 1.07 µM) | 0.25 (≈ 0.268 µM) | 0.25 (≈ 0.268 µM) | 0.5 (≈ 0.537 µM) | 2 (≈ 2.15 µM) | 4 (≈ 4.3 µM) | 32 (≈ 34.4 µM) | 16 (≈ 17.2 µM) | 128 (≈ 137 µM) | 128 (≈ 137 µM) | 32 (≈ 34.4 µM) | 64 (≈ 68.7 µM) | ≤ 0.048 | 0.39 (≈ 0.419 µM) | 8/10 | – | MIC (Mycoplasma hyorhinis 29E): 25 µg/mL (≈ 26.8 µM); MIC (Mycoplasma synoviae 40A): ≤ 0.048 µg/mL; MIC [14]: 12.5 µg/mL (≈ 13.4 µM); MIC [15]: 6.25 µg/mL (≈ 6.71 µM); MIC [16]: 12.5 µg/mL (≈ 13.4 µM); MIC (Staphylococcus aureus): 3.12 µg/mL (≈ 3.35 µM); MIC (Streptococcus sp. 19F): 0.78 µg/mL (≈ 0.838 µM); ED50 ([17]; C203, Oral): 16.5 mg/kg; ED50 ([17]; C203, sc, Subcutaneous): 3.81 mg/kg
3 | CCC1OC(=O)CC(O)C(C)C(OC2OC(C)C(O)C(N(C)C)C2O)C(CCN2CC3CCCCC3C2)CC(C)C(=O)C=CC(C)=CC1COC1OC(C)C(O)C(OC)C1OC (centres unmarked) [Compound D45] | – | – | – | – | – | – | – | – | – | – | – | – | – | – | – | – | – | – | 0/10 | 1/10 | –
4 | CCC1OC(=O)CC(O)C(C)C(OC2OC(C)C(O)C(N(C)C)C2O)C(CCN2CC3CCC(C)(C2)C3(C)C)CC(C)C(=O)C=CC(C)=CC1COC1OC(C)C(O)C(OC)C1OC (centres unmarked) [Compound D47] | – | – | – | – | – | – | – | – | – | – | – | – | – | – | – | – | – | – | 0/10 | 6/10 | –
